# Laboratory results reported in publication PMC6359675, “Functionalization of the Chalcone Scaffold for the Discovery of Novel Lead Compounds Targeting Fungal Infections” (Molecules, 2019).
# Where “and” joins values, the source holds several entries; their conditions need not be identical. Identical values can stand only once. Like-named read-outs stand apart in the source and are kept apart here.
# Legend:
# C. albicans ATCC 10231 [1] = assay: Agar-invasive hyphal growth (Spider agar assay); assay type: cell-based, Candida albicans; settings: compounds at IC50 values, three days at 37 °C
# Procedure: Aliquots (2 µL) of a suspension of C. albicans ATCC 10231 (5 × 10^5 cells/mL) were spotted onto medium in triplicate and the morphology of growing colonies was observed following three days of incubation at 37 °C. Spider agar plates without chalcones, containing DMSO, served as the control. The presence of filaments at the colony edges was determined using a light microscope under 10× magnification.
# C. lusitaniae = assay: In vitro susceptibility testing, C. lusitaniae clinical isolate; assay type: cell-based; settings: Clavispora lusitaniae
# Text: (§1) The yeasts included in the present study were Candida albicans ATCC 10231 (American Type Culture Collection) and a collection of yeasts recovered from a variety of clinical specimens, i.e., blood, urine, genital swabs, bronchoalveolar lavage, nail specimens, collected at the Microbiology Unit, St. Orsola Malpighi University Hospital, Bologna, Italy. The clinical strain isolates were identified by standard procedures, including colony morphology on chromogenic agar (CHROMagar Candida medium, Becton Dickinson, Heidelberg, Germany) and confirmed by MALDI Biotyper System using matrix-assisted laser desorption ionization–time of flight mass spectrometry (MALDI-TOF MS, Bruker Daltonik, GmbH, Germany).
# (§2) The in vitro antifungal activity of the chalcones was evaluated by a microdilution broth method in accordance with the guidelines provided by the EUCAST Edef 7.3 [22]. Briefly, all strains were cultured on Sabauraud dextrose, then inocula, prepared at 0.5 McFarland, were diluted 1:20 in RPMI-1640 medium (Gibco®, ThermoFisher Scientific Inc., Waltham, MA, USA), containing glucose 2%, 0.3% levo-glutamine buffered to pH 7.0 with 0.165 M 3-(N-morpholino)propanesulfonic acid (MOPS) to yield 1-5 × 10^5 cells/mL. A total of 100 µL of the yeast suspension was inoculated in a 96-well microplate and incubated with 100 µL of serially 2-fold dilution of the compound in the range 200–6.25 µM. The following controls were included: yeast suspensions incubated in RPMI-1640 culture medium (positive growth control), or supplemented with dilutions of DMSO, or fluconazole (Sigma-Aldrich, St. Louis, MO, USA) as a commercial drug. To check the background turbidity of reagents and the sterility of the procedure, dilutions of each compound were incubated in RPMI-1640 culture medium, without yeast inoculum. The inoculated plate was incubated at 37 °C for 24 h, and subsequently the optical density at 630 nm was measured by the Multiskan Ascent microplate reader (Thermo Fisher Scientific Inc.). The effectiveness of the compounds was expressed as percent inhibition relative to the positive growth control when the inhibition […] the 50% at 100 µM. The IC50 value was determined by interpolation of the dose–response curves generated by plotting the percentages of growth inhibition, relative to the drug-free control (set to 100% of growth), as a function of the tested concentrations (on a logarithm scale). Statistical analysis was carried out by the nonlinear regression method using GraphPad Prism version 5.0 for Windows (GraphPad Software, San Diego, CA, USA). All assays were performed in triplicate and at least two independent experiments were carried out.
# C. glabrata = assay: In vitro susceptibility testing, C. glabrata clinical isolate; assay type: cell-based; settings: Nakaseomyces glabratus
# Text: as §1, §2
# C. krusei = assay: In vitro susceptibility testing, C. krusei clinical isolate; assay type: cell-based; settings: Pichia kudriavzevii
# Text: as §1, §2
# R. mucilaginosa = assay: In vitro susceptibility testing, R. mucilaginosa clinical isolate; assay type: cell-based
# Text: as §1, §2
# C. neoformans = assay: In vitro susceptibility testing, C. neoformans clinical isolate; assay type: cell-based; settings: Cryptococcus neoformans
# Text: as §1, §2
# C. albicans ATCC 10231 [2] = assay: Disruption of preformed mature biofilm (biofilm metabolic activity); assay type: cell-based, Candida albicans; settings: compounds added to preformed mature biofilm; statistically significant
# C. albicans ATCC 10231 [3] = assay: In vitro susceptibility testing, microdilution broth (EUCAST), C. albicans control strain; assay type: cell-based, Candida albicans; settings: Candida albicans; for inhibition at 100 µM: ATCC10231, 24 h
# Procedure: as §2
# C. utilis = assay: In vitro susceptibility testing, C. utilis clinical isolate; assay type: cell-based; settings: Williopsis jadinii
# Text: as §1, §2
# S. clavata = assay: In vitro susceptibility testing, S. clavata clinical isolate; assay type: cell-based
# Text: as §1, §2
# Vero cells (ATCC CCL-81) = assay: Cytotoxicity test on Vero cells (WST8/CCK-8 cell viability); assay type: cell-based, African green monkey; settings: 72 h, up to the highest concentration of 200 μM
# Procedure: (§3) African green monkey kidney cells (Vero ATCC CCL-81) were cultured in Eagle’s Minimal Essential Medium (MEM) (Sigma-Aldrich), supplemented with 10% fetal bovine serum (FBS) (Carlo Erba Reagents, Milan, Italy), 100 U/mL penicillin, and 100 µg/mL streptomycin at 37 °C with 5% CO2. For experiments, cells were seeded into 96-well plates at 10^4 cells/well, and incubated at 37 °C for 24 h. Following washes with PBS, cell monolayer was incubated with 100 µL of serially 2-fold dilution of the compound in the range 200–6.25 µM. Both untreated cells and cells incubated with medium containing solvent dilutions were included in each experiment as controls.
# (§4) The cell viability was assessed by a WST8-based assay according to the manufacturer’s instructions (CCK-8, Cell Counting Kit-8, Dojindo Molecular Technologies, Rockville, MD, USA). After 72 h of incubation, culture medium was removed from each well, the monolayer was washed with PBS, and 100 µL of fresh medium containing 10 µL of CCK-8 solution were added. Following a 2 h at 37 °C, the absorbance was measured at 450/630 nm; data were calculated as the percentage of the cell viability relative to the untreated controls.
# [4] = as above; assay type: cell-based, African green monkey; settings: African green monkey, Vero cells (ATCC CCL-81), Vero cells, mean and 95% confidence interval
# Procedure: as §3, §4
# C. albicans = assay: In vitro susceptibility testing, C. albicans clinical isolate; assay type: cell-based; settings: Candida albicans
# Text: as §1, §2
# C. parapsilosis = assay: In vitro susceptibility testing, C. parapsilosis clinical isolate; assay type: cell-based; settings: Lodderomyces parapsilosis
# Text: as §1, §2
# C. tropicalis = assay: In vitro susceptibility testing, C. tropicalis clinical isolate; assay type: cell-based; settings: Candida tropicalis
# Text: as §1, §2
# C. albicans ATCC 10231 [5] = assay: Effect on yeast-to-hyphae transition; assay type: cell-based, Candida albicans; settings: compound at IC50 value, 2 h
# Text: Blastospore and hyphae forms were observed under a light microscope.
# [6] = clinical isolate, read-out: IC50 C. lusitaniae
# [7] = clinical isolate, read-out: IC50 C. glabrata
# [8] = clinical isolate, read-out: IC50 C. krusei
# [9] = clinical isolate, read-out: IC50 R. mucilaginosa
# [10] = clinical isolate, read-out: IC50 C. neoformans
# [11] = ATCC10231, C. albicans ATCC 10231, mean and 95% confidence interval, read-out: IC50
# [12] = ATCC10231, C. albicans ATCC 10231, mean and 95% confidence interval, read-out: IC50 [μg/mL]
# [13] = clinical isolate, read-out: IC50 C. utilis
# [14] = clinical isolate, read-out: IC50 S. clavata
# [15] = clinical isolate, mean and 95% confidence interval, read-out: IC50 C. albicans
# [16] = clinical isolate, read-out: IC50 C. parapsilosis
# [17] = clinical isolate, read-out: IC50 C. tropicalis
Structure (SMILES),invasion of Spider medium (filamentation) (C. albicans ATCC 10231 [1]),IC50 (C. lusitaniae; [6]),IC50 (C. glabrata; [7]),IC50 (C. krusei; [8]),IC50 (R. mucilaginosa; [9]),IC50 (C. neoformans; [10]),reduction of metabolism of sessile cells in mature biofilm (C. albicans ATCC 10231 [2]) [%],IC50 (C. albicans ATCC 10231 [3]; [11]) [µM],IC50 (C. albicans ATCC 10231 [3]; [12]) [µg/mL],inhibition at 100 µM (C. albicans ATCC 10231 [3]; C. albicans ATCC 10231) [%],IC50 (C. utilis; [13]),IC50 (S. clavata; [14]),"toxicity on Vero cells, in words (Vero cells (ATCC CCL-81))",CC50 at 72 h ([4]; read-out: CC50) [µM],CC50 at 72 h ([4]; read-out: CC50 [μg/mL]) [µg/mL],IC50 (C. albicans; [15]),IC50 (C. parapsilosis; [16]),IC50 (C. tropicalis; [17]),further results
"O=C(/C=C/c1cc(F)cc(F)c1)c1cc(Cl)ccc1O [Compound 5, (E)-1-(5-Chloro-2-hydroxyphenyl)-3-(3,5-difluorophenyl)prop-2-en-1-one]",unable to penetrate the medium,14.1 µg/mL and 47.9 µM,> 58.9 µg/mL and > 200 µM,> 58.9 µg/mL and > 200 µM,22.7 µg/mL and 76.9 µM,5.3 µg/mL and 18 µM,< 25,51.3,15.1,62 ± 1.5,29.5 µg/mL and 100 µM,29.5 µg/mL and 100 µM,did not display any toxicity,> 200,> 58.9,29.5 µg/mL and 100 µM,58.9 µg/mL and 200 µM,> 58.9 µg/mL and > 200 µM,
"O=C(/C=C/c1cccc(F)c1)c1cc(F)ccc1O [Compound 7, (E)-1-(5-Fluoro-2-hydroxyphenyl)-3-(3-fluorophenyl)prop-2-en-1-one]",unable to penetrate the medium,31.7 µM and 8.2 µg/mL,100 µM and 26 µg/mL,100 µM and 26 µg/mL,80 µM and 20.8 µg/mL,15.6 µM and 4.1 µg/mL,< 25,53,13.8,69 ± 12.4,100 µM and 26 µg/mL,37 µM and 9.6 µg/mL,,182,47.3,32.1 µM and 8.4 µg/mL,100 µM and 26 µg/mL,> 200 µM and > 52 µg/mL,"cell morphology after treatment (C. albicans ATCC 10231 [5]): mainly formed blastospores, some rare budding cells but no hyphae"
"COc1cc(OCCN2CCN(c3ccccc3)CC2)ccc1C(=O)/C=C/c1ccc(F)cc1 [Compound 28, (E)-3-(4-Fluorophenyl)-1-(2-methoxy-4-(2-(4-phenylpiperazin-1-yl)ethoxy)phenyl)prop-2-en-1-one]",,26.5 µM and 13.1 µg/mL,37.1 µM and 18.4 µg/mL,63.5 µM and 31.5 µg/mL,48.5 µM and 21.4 µg/mL,17.7 µM and 8.8 µg/mL,,55.9,27.7,99.1 ± 0.7,29.6 µM and 14.7 µg/mL,27.9 µM and 13.8 µg/mL,did not display any toxicity,> 200,> 99.2,48.1 µM and 23.9 µg/mL,36.8 µM and 18.3 µg/mL,26.6 µM and 13.2 µg/mL,"IC50 (C. lusitaniae; Table S1, best-fit, C. lusitaniae, read-out: IC50): 26.5 µM; IC50 (C. glabrata; Table S1, best-fit, C. glabrata, read-out: IC50): 35.9 µM; IC50 (C. krusei; Table S1, best-fit, C. krusei, read-out: IC50): 63.6 µM; IC50 (R. mucilaginosa; Table S2, best-fit, R. mucilaginosa, read-out: IC50): 46.2 µM; IC50 (C. neoformans; Table S2, best-fit, C. neoformans, read-out: IC50): 17.7 µM; IC50 (C. albicans ATCC 10231 [3]; ATCC10231, Table S1, variable slope best-fit, C. albicans ATCC 10231, read-out: IC50): 55.6 µM; IC50 (C. utilis; Table S1, best-fit, C. utilis, read-out: IC50): 29.6 µM; IC50 (S. clavata; Table S2, best-fit, S. clavata, read-out: IC50): 28 µM; IC50 (C. albicans; Table S1, best-fit, C. albicans clinical isolate, read-out: IC50): 48.1 µM; IC50 (C. parapsilosis; Table S1, best-fit, C. parapsilosis, read-out: IC50): 31.3 µM; IC50 (C. tropicalis; Table S1, best-fit, C. tropicalis, read-out: IC50): 26.6 µM"
